Data on 28 molecules can be found in patent US10065972B2, “Bicyclic or tricyclic heterocyclic compound” (MITSUBISHI TANABE PHARMA CORPORATION, priority 2014, dated 2018).

Sequence of human recombinant KAT-II (Q8N5Z0 30-425): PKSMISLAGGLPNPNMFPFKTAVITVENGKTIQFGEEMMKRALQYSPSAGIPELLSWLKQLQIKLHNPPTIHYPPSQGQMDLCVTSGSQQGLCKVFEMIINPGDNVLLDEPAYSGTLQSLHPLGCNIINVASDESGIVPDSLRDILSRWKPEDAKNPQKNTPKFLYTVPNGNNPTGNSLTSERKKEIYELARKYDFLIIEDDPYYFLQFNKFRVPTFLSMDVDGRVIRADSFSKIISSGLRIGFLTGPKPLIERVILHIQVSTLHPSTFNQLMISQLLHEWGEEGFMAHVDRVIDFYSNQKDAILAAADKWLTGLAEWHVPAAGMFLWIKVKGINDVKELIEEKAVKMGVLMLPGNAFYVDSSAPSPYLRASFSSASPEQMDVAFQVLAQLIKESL

In this assay the target is human recombinant KAT-II (Homo sapiens (Human), UniProt Q8N5Z0). In words: KAT-II inhibitory test. It counts as biochemical. The note with it: 3.0 μmol/L kynurenine, 37° C., 1 hr, pH 8.0; kynurenic acid quantified by HPLC. As to the method:
The compounds described in the above-mentioned Examples were used for the KAT-II inhibitory test.
Preparation of Human Recombinant KAT-II
Human recombinant KAT-II was prepared as follows.
His tag and maltose binding protein tag were added to the N-terminal of a gene encoding human KAT-II (Genbank accession number: AF481738.1), and the obtained gene was incorporated into pET32 (Merck Nihon Millipore), which is an Escherichia coli expression vector. Human recombinant KAT-II produced by BL21(DE3) Escherichia coli (Merck Nihon Millipore, 69450) transformed using the plasmid was purified using an amylose resin column (New England Biolabs, #800-21 L).
The inhibitory action of the test compound on human recombinant KAT-II was determined by the following method.
To a reaction mixture (45 μL) containing 3.0 μmol/L kynurenine, 10 μmol/L pyridoxal phosphate, 2.0 ng/μL human recombinant KAT-II, and 150 mmol/L tris(hydroxymethyl)aminomethane-acetate buffer (pH 8.0) was added a 10% dimethyl sulfoxide solution (5 μL) of each test compound prepared, and the mixture was reacted at 37° C. for 1 hr. After the reaction, 50% trichloroacetic acid (5 μL) was added to terminate the reaction.
The resultant kynurenic acid was quantified as follows by high performance liquid chromatography. An enzyme reaction mixture was separated by an octadecylsilane reversed-phase column (SC-50DS, Eicom Corporation; mobile phase: 250 mmol/L zinc acetate, 50 mmol/L sodium acetate, and 5.0% acetonitrile (pH 6.2)) incubated at 30° C., and kynurenic acid was quantified using a fluorescence detector (RF-20Axs, Shimadzu Corporation) at excitation wavelength 354 nm, detection wavelength 460 nm. The analytical curve was drawn every time by an external standard method. Each test compound was tested by dual measurement at each concentration.
One may read the IC50 as the concentration that inhibits the measured activity by half. Take `O=C(Oc1ccccc1)N1CCC[C@@H]1c1nc2c(=O)[nH]c(N3CCCCC3)nc2s1` [Example 107, (R)-2-[7-oxo-5-(piperidin-1-yl)-6,7-dihydro[1,3]thiazolo[5,4-d]pyrimidin-2-yl]pyrrolidine-1-carboxylic acid phenyl ester]: the IC50 came to 46 nM.

In the case of `CCc1nc2sc([C@H]3CCCN3C(=O)Oc3ccccc3)nc2c(=O)n1Cc1ccc(OC)cc1OC` [Example 111, (R)-2-[6-(2,4-dimethoxybenzyl)-5-ethyl-7-oxo-6,7-dihydro[1,3]thiazolo[5,4-d]pyrimidin-2-yl]pyrrolidine-1-carboxylic acid phenyl ester], the IC50 stood at 270 nM.

Regarding `CCc1nc2sc([C@H]3CCCN3C(=O)Oc3ccccc3)nc2c(=O)[nH]1` [Example 114, (R)-2-(5-ethyl-7-oxo-6,7-dihydro[1,3]thiazolo[5,4-d]pyrimidin-2-yl)pyrrolidine-1-carboxylic acid phenyl ester], the IC50 stood at 29 nM.

With `CC1(c2nc3sc([C@H]4CCCN4C(=O)Oc4ccccc4)nc3c(=O)[nH]2)COC1` [Example 116, (R)-2-[5-(3-methyloxetan-3-yl)-7-oxo-6,7-dihydro[1,3]thiazolo[5,4-d]pyrimidin-2-yl]pyrrolidine-1-carboxylic acid phenyl ester], the IC50 is 14 nM.

For the molecule `Cc1noc(-c2nc3sc([C@H]4CCCN4C(=O)Oc4ccccc4)nc3c(=O)[nH]2)n1` [Example 120, (R)-2-[5-(3-methyl-[1,2,4]oxadiazol-5-yl)-7-oxo-6,7-dihydro[1,3]thiazolo[5,4-d]pyrimidin-2-yl]pyrrolidine-1-carboxylic acid phenyl ester], the IC50 was 4.7 nM.

For the molecule `CC(C)(F)c1nc2sc(N3CCCN3C(=O)Oc3ccccc3)nc2c(=O)[nH]1` [Example 131, 2-[5-(2-fluoropropan-2-yl)-7-oxo-6,7-dihydro[1,3]thiazolo[5,4-d]pyrimidin-2-yl]pyrazolidine-1-carboxylic acid phenyl ester], the IC50 was 110 nM.

For the molecule `Cc1cccc(OC(=O)N2CCCN2c2nc3c(=O)[nH]c(C(C)(C)F)nc3s2)c1` [Example 132, 2-[5-(2-fluoropropan-2-yl)-7-oxo-6,7-dihydro[1,3]thiazolo[5,4-d]pyrimidin-2-yl]pyrazolidine-1-carboxylic acid 3-methylphenyl ester], the IC50 amounted to 51 nM.

For `CC(C)(F)c1nc2sc(N3CCCN3C(=O)Cc3ccccc3)nc2c(=O)[nH]1` [Example 133, 5-(2-fluoropropan-2-yl)-2-[2-(phenylacetyl)pyrazolidin-1-yl]-6H-[1,3]thiazolo[5,4-d]pyrimidin-7-one], the IC50 amounted to 150 nM.

Regarding `Cc1cccc(CC(=O)N2CCCN2c2nc3c(=O)[nH]c(C(C)(C)F)nc3s2)c1` [Example 134, 5-(2-fluoropropan-2-yl)-2-{2-[2-(3-methylphenyl)acetyl]pyrazolidin-1-yl}-6H-[1,3]thiazolo[5,4-d]pyrimidin-7-one], the IC50 is 230 nM.

As for `CC(C)c1nc2sc([C@H]3CCCN3C(=O)Oc3ccccc3)nc2c(=O)n1C` [Example 135, (R)-2-[6-methyl-7-oxo-5-(propan-2-yl)-6,7-dihydro[1,3]thiazolo[5,4-d]pyrimidin-2-yl]pyrrolidine-1-carboxylic acid phenyl ester], the IC50 was determined as 23 nM.

Regarding `O=C(Oc1ccccc1)N1CCC[C@@H]1c1nc2c(=O)[nH]c(-c3ccccc3F)cc2s1` [Example 137, (R)-2-[6-(2-fluorophenyl)-4-oxo-4,5-dihydro[1,3]thiazolo[4,5-c]pyridin-2-yl]pyrrolidine-1-carboxylic acid phenyl ester], the IC50 was 69 nM.

On to `O=C(Oc1ccccc1)N1CCC[C@@H]1c1nc2c(=O)[nH]c(C(F)(F)F)cc2s1` [Example 138, (R)-2-(4-oxo-6-trifluoromethyl-4,5-dihydro[1,3]thiazolo[4,5-c]pyridin-2-yl)pyrrolidine-1-carboxylic acid phenyl ester], for which the IC50 worked out at 390 nM.

Take `CC(C)c1cc(=O)n2nc([C@H]3CCCN3C(=O)Oc3ccc(F)cc3)sc2n1` [Example 140, (R)-2-[5-oxo-7-(propan-2-yl)-5H-[1,3,4]thiadiazolo[3,2-a]pyrimidin-2-yl]pyrrolidine-1-carboxylic acid 4-fluorophenyl ester]: the IC50 was found to be 77 nM.

On to `CC(C)c1cc(=O)n2nc([C@H]3CCCN3C(=O)Cc3ccccc3)sc2n1` [Example 142, 2-[(R)-1-(phenylacetyl)pyrrolidin-2-yl]-7-(propan-2-yl)-5H-[1,3,4]thiadiazolo[3,2-a]pyrimidin-5-one], for which the IC50 stood at 980 nM.

For the molecule `CC(C)c1cc(=O)n2nc([C@H]3CCCN3C(=O)Cc3ccc(F)cc3)sc2n1` [Example 143, 2-{(R)-1-[2-(4-fluorophenyl)acetyl]pyrrolidin-2-yl}-7-(propan-2-yl)-5H-[1,3,4]thiadiazolo[3,2-a]pyrimidin-5-one], the IC50 came out at 2200 nM.

Consider `CC(C)c1cc(=O)n2nc([C@H]3CCCN3C(=O)OCc3ccccc3)sc2n1` [Example 144, (R)-2-[5-oxo-7-(propan-2-yl)-5H-[1,3,4]thiadiazolo[3,2-a]pyrimidin-2-yl]pyrrolidine-1-carboxylic acid benzyl ester], for which the concentration for half-maximal inhibition (IC50) worked out at 720 nM.

`CC(C)c1cc(=O)n2nc([C@H]3CCCN3C(=O)COc3ccccc3)sc2n1` [Example 145, 2-[(R)-1-(2-phenoxyacetyl)pyrrolidin-2-yl]-7-(propan-2-yl)-5H-[1,3,4]thiadiazolo[3,2-a]pyrimidin-5-one]: the IC50 was determined as 1500 nM.

In the case of `CCc1cc(=O)n2nc([C@H]3CCCN3C(=O)Oc3ccccc3)sc2n1` [Example 146, (R)-2-(7-ethyl-5-oxo-5H-[1,3,4]thiadiazolo[3,2-a]pyrimidin-2-yl)pyrrolidine-1-carboxylic acid phenyl ester], the IC50 turned out to be 140 nM.

With `CCc1c(C)nc2sc([C@H]3CCCN3C(=O)Oc3ccccc3)nn2c1=O` [Example 148, (R)-2-(6-ethyl-7-methyl-5-oxo-5H-[1,3,4]thiadiazolo[3,2-a]pyrimidin-2-yl)pyrrolidine-1-carboxylic acid phenyl ester], the IC50 stood at 230 nM.

Turning to `O=C(Oc1ccccc1)N1CCC[C@@H]1c1nn2c(=O)c3c(nc2s1)CCCC3` [Example 149, (R)-2-(5-oxo-6,7,8,9-tetrahydro-5H-[1,3,4]thiadiazolo[2,3-b]quinazolin-2-yl)pyrrolidine-1-carboxylic acid phenyl ester], the IC50 came out at 160 nM.

For `CC(C)c1nc2sc([C@H]3CCCN3C(=O)Oc3ccccc3)nn2c(=O)c1Cl` [Example 153, (R)-2-[6-chloro-5-oxo-7-(propan-2-yl)-5H-[1,3,4]thiadiazolo[3,2-a]pyrimidin-2-yl]pyrrolidine-1-carboxylic acid phenyl ester], the IC50 was 48 nM.

As to `O=C(Oc1ccccc1)N1CCC[C@@H]1c1nn2c(=O)c3cc(F)ccc3nc2s1` [Example 155, (R)-2-(7-fluoro-5-oxo-5H-[1,3,4]thiadiazolo[2,3-b]quinazolin-2-yl)pyrrolidine-1-carboxylic acid phenyl ester], the IC50 worked out at 320 nM.

Turning to `CC(C)c1cc(=O)n2nc([C@H]3CCCN3C(=O)NCc3ccccc3)sc2n1` [Example 157, (R)-N-benzyl-2-[5-oxo-7-(propan-2-yl)-5H-[1,3,4]thiadiazolo[3,2-a]pyrimidin-2-yl]pyrrolidine-1-carboxamide], the IC50 worked out at 470 nM.

As for `CC(C)c1cc(=O)n2nc([C@H]3CCCN3C(=O)NCc3ccccc3Cl)sc2n1` [Example 158, (R)-N-(2-chlorobenzyl)-2-[5-oxo-7-(propan-2-yl)-5H-[1,3,4]thiadiazolo[3,2-a]pyrimidin-2-yl]pyrrolidine-1-carboxamide], the IC50 stood at 170 nM.

For the molecule `CC(C)c1cc(=O)n2nc([C@H]3CCCN3C(=O)Nc3ccccc3)sc2n1` [Example 160, (R)-2-[5-oxo-7-(propan-2-yl)-5H-[1,3,4]thiadiazolo[3,2-a]pyrimidin-2-yl]-N-phenylpyrrolidine-1-carboxamide], the IC50 came out at 5200 nM.

Take `CC(C)c1cc(=O)n2nc([C@H]3CCCN3C(=O)CN3CCCc4ccccc43)sc2n1` [Example 166, 2-{(R)-1-[(3,4-dihydroquinolin-1(2H)-yl)acetyl]pyrrolidin-2-yl}-7-(propan-2-yl)-5H-[1,3,4]thiadiazolo[3,2-a]pyrimidin-5-one]: the IC50 is 190 nM.

Consider `CC(C)c1cc(=O)n2nc([C@H]3CCCN3C(=O)NC3(c4ccccc4)CC3)sc2n1` [Example 167, (R)-N-(1-phenylcyclopropyl)-2-[5-oxo-7-(propan-2-yl)-5H-[1,3,4]thiadiazolo[3,2-a]pyrimidin-2-yl]pyrrolidine-1-carboxamide], for which the IC50 was determined as 90 nM.

On to `CC(C)c1cc(=O)n2nc([C@H]3CCCN3C(=O)N[C@@H]3CCc4ccccc43)sc2n1` [Example 168, (R)-N-((R)-indan-1-yl)-2-[5-oxo-7-(propan-2-yl)-5H-[1,3,4]thiadiazolo[3,2-a]pyrimidin-2-yl]pyrrolidine-1-carboxamide], for which the IC50 came out at 410 nM.
